“And” between values parts separate entries of the source, which are not always exact repeats. Identical values can stand only once. “Also recorded” adds a separate entry of the source. Like-named read-outs stand apart in the source and are kept apart here. Marks after values point to notes of the source that are not given here.
Tests used:
[1] = ABTS radical-scavenging activity; assay type: biochemical; settings: compounds tested at 250 µM, mean ± standard deviation, n = 3
Description: The ABTS assay used herein was based on the method of Re et al. with slight modifications. Substances at concentrations of 250 µM, BHT or BHA were added to dilute ABTS solution and the absorbance at […] was measured. The antioxidant activity was calculated using the equation: % inhibition = 100 × (1 − sample abs/control abs).

[2] = DPPH radical-scavenging activity; assay type: biochemical; settings: compounds tested at 250 µM, mean ± standard deviation, n = 3
Description: The measurement of the scavenger activity of DPPH• was carried out according to the method of Molineux with modifications. Substances at 250 µM were added, at an equal volume, to the methanol solution of DPPH• ([…]). After 15 min at room temperature, the absorbance was recorded at 517 nm (sample abs). The experiment was repeated three times. BHT, BHA were used as controls. Values denote percentage of DPPH free radical inhibition. The antioxidant activity was calculated using the equation: % inhibition = 100 × (1 − sample abs/control abs).

[3] = tested on: Mouse embryonic fibroblast cells (3T3L1 line); assay: Cell viability assay (alamar blue); assay type: cell-based; settings: ‡ >50 µg/mL, read-out: Toxicity Mouse embryonic fibroblast cells (3T3L1 line) (IC50)
Description: The cytotoxicity of 4-NC and derivatives of 4-NC 1–8 to mouse embryonic fibroblast line 3T3L1 was evaluated using alamar blue to measure cell survival/proliferation. The substances at different concentrations (12.5, 25 and 50 µM) were separately incubated with cells and the number of viable cells was counted after 24, 48 and 72 h. […] O,O-Dibenzyl 4-NC (1) was not active (i.e. not toxic to A. franciscana) in the brine shrimp assay (Table 1).
3T3-L1 cells (mouse embryonic fibroblasts) were obtained from the Cell Bank of Rio de Janeiro, Brazil and were maintained in Dulbecco’s Modified Eagle Medium (DMEM) which was supplemented with 10% fetal bovine serum (FBS), penicillin (100 U/mL) and streptomycin (100 U/mL). The cells were incubated at 37 °C in a humidified atmosphere containing 5% of CO2.
The cytotoxicity of 4-NC and its semi-synthetic derivatives 1–8 to the 3T3L1 mouse embryonic fibroblast cell line fibroblasts was determined by the alamar blue method as described by Nakayama and co-workers. The alamar blue assay is a colorimetric assay involving the cellular reduction of resazurin to resorufin. Briefly, adherent cells (5 × 10^3 cells/well) were grown in 96-well tissue culture plates and exposed to substances (50, 25 and 12.5 μM) for 24, 48 and 72 h. After incubation, the alamar blue solution (10 µL of 0.4% alamar blue (resazurin) in PBS) was added and the cells were incubated for 2 h at 37 °C. Fluorescence was measured (excitation at 545 nm and emission at 595 nm) and expressed as a percentage of the cells in the control after background fluorescence was subtracted. The assays were performed in triplicate.

[4] = tested on: 3T3L1 mouse embryonic fibroblast cell line; assay: Cellular antioxidant activity (oxidation of DCFH-DA); assay type: cell-based; parameters: inhibition of the oxidation of DCFH-DA in 3T3L1 cells: concentration or dose not given beside the values; settings: for loss of antioxidant activity after storage: DMSO solution stored at −20 °C for 30 days; for inhibition of the oxidation of DCFH-DA in 3T3L1 cells: over the observation period of 60 min
Description: These tests evaluate the reducing effect of a given substance on the radical species formed in situ during these assays leading to a decrease in color versus controls that is measured spectrophotometrically. […] Thus, at a concentration of 250 µM, 4-NC inhibited DPPH• and ABTS+• by 97% and 95%, respectively. Mono-O-substituted 4-NC derivatives 2–5 inhibited ABTS+• by 89–93%. […] The antioxidant activity was also evaluated in mouse embryonic 3T3L1 fibroblasts. In this assay DCFH-DA (2',7'-dichlorofluorescein diacetate) is hydrolyzed by intracellular esterases and then oxidized by reactive oxygen species (ROS) to the fluorescent compound 2'-7'-DCF. An active antioxidant substance can inhibit the transformation of fatty acids to fatty acid hydroperoxides in the cell membranes and thereby inhibit the oxidation of DCFH-DA.
The antioxidant activity of 4-NC and semi-synthetic derivatives of 4-NC was evaluated on the 1st and 30th days after dissolving the substances in DMSO at a concentration of 10 mM and storage in a freezer at −20 °C. This experiment permitted the evaluation of the relative stability of the antioxidant activity of 4-NC, derivatives of 4-NC, BHT and BHA. Thus, cellular antioxidants were evaluated using the mouse embryonic fibroblast 3T3L1 cell line. […] The presence of mono-O or di-O,O substituent groups in the 4-NC derivatives can confer stability relative to 4-NC. Such chemical stability is highly desirable when contemplating the use of such substances in cosmetic and pharmaceutical formulations and foods. Here, 4-NC dissolved in DMSO lost more than 80% of its antioxidant activity after 30 days in the freezer.
Intracellular ROS production was detected using the non-fluorescent cell permeating compound, 2'7'-dichlorofluorescein diacetate (DCF-DA), as described by Wolfe and Liu. DCF-DA is hydrolyzed by intracellular esterases and then oxidized by hydroperoxides into the fluorescent compound, 2'-7'-DCF. 3T3-L1 cells were seeded at a density of 6 × 10^4 cells/well in a 96-well microplate in 100 μL of growth medium. 24 h after seeding, the growth medium was removed and the wells were washed with PBS. Then, a 10 μM solution of DCFH-DA dissolved in Hank’s buffer (100 μL) was added to wells and incubated for 30 min at 37 °C and 5% CO2. The cells were washed first with PBS (100 μL) then EEP (100 µL) and samples having different concentrations were added. The fluorescence was immediately measured at an excitation wavelength of 485 nm and emission wavelength of 520 nm over 60 min at 5 min intervals. Controls with/without DCFH-DA were prepared and subjected to analogous procedures. Quercetin, BHA and BHT were used as positive controls of antioxidant activity.

[5] = tested on: melanoma cell lines (SK-Mel-28, 103 and 147); parameters: method as in PMID 19059332; settings: read-out: IC50 in vitro growth of melanoma cell lines; cited from earlier work
[6] = tested on: normal fibroblast cells; parameters: method as in PMID 19059332; settings: cited from earlier work
[7] = tested on: Plasmodium falciparum; parameters: method as in PMID 17568942; settings: cited from earlier work
[8] = tested on: Plasmodium berghei; settings: cited from earlier work
[9] = tested on: rat brain homogenates; parameters: method as in ref 8 = [8]; 8. De Freitas P.C.D. Atividade Antioxidante de Espécies Medicinais da Família Piperaceae: Pothomorphe umbellata (L.) Miq. e Piper regnelli (Miq.) C. DC Ph.D. Thesis University of São Paulo (USP) São P; settings: inhibition of spontaneous lipoperoxidation; cited from earlier work
[10] = tested on: KB tumor cells; parameters: method as in PMID 10364848; settings: cited from earlier work
[11] = tested on: human topoisomerase I; parameters: method as in PMID 10364848; settings: cited from earlier work
[12] = tested on: tumor cell lines; settings: cited from earlier work
[13] = Brine shrimp assay; parameters: species or system Artemia franciscana; settings: Artemia franciscana (brine shrimp), in vivo, read-out: Toxicity Brine shrimp (Artemia franciscana) (LC50)
[14] = tested on: Artemia franciscana; assay: Brine shrimp assay; settings: in vivo
[15] = tested on: colon tumor cells (HCT-8 strain), central nervous system tumor cells (SF295 strain) and leukemia cells (HL-60 strain); parameters: method as in PMID 19084293; settings: HCT-8, SF295 and HL-60; read-out: cytotoxicity IC50; cited from earlier work
[16] = tested on: leukemia cells (HL-60 strain); parameters: method as in PMID 19084293; settings: read-out: IC50 growth of leukemia cells; cited from earlier work
[17] = † >500 µg/mL, 4 and 5 tested separately
[18] = Mus musculus, 3T3-L1, alamar blue

Molecule | ABTS (%) percentage of inhibition [1] | DPPH• (%) percentage of inhibition [2] | LC50 [13, 17] | cytotoxic activity against Artemia franciscana in the brine shrimp assay [14] | IC50 [3, 18] | other results
4-nerolidylcatechol [Compound 4-NC] | – | – | – | – | – | ABTS (%) percentage of inhibition ([1]; 250 µM): 95% and 94.82 ± 0.22 ^a %; DPPH• (%) percentage of inhibition ([2]; 250 µM): 97% and 96.53 ± 0.50 ^a %; IC50 ([3]; alamar blue): 31.4 µM and 31.5 µM; loss of antioxidant activity after storage ([4]; 3T3L1 cells): more than 80%; inhibition of the oxidation of DCFH-DA in 3T3L1 cells [4]: ≥ 20%; IC50 [5]: 20 to 40 µM; IC50 [6]: 50 µM; in vitro activity against Plasmodium falciparum [7]: high in vitro activity; in vivo activity in Plasmodium berghei-infected mice [8]: low in vivo activity; also recorded: little activity; in vitro antioxidant activity relative to α-tocopherol (vitamin E) [9]: approximately 20 times; toxicity in vitro to KB tumor cells [10]: toxic; inhibition of human topoisomerase I [11]: inhibits; IC50 [12]: 19.7 to 38.8 µM
C=CC(C)(CC/C=C(\C)CCC=C(C)C)c1ccc(OCc2ccccc2)c(O)c1 (centres unmarked) [Compound 2, 1-O-benzyl 4-NC] | 91.12 ± 0.68 ^a % | 44.20 ± 0.01 ^b % | 1 mM | weak cytotoxic activity | – | activity against tumor cells [12]: inactive
C=CC(C)(CC/C=C(\C)CCC=C(C)C)c1ccc(OCc2ccccc2)c(OCc2ccccc2)c1 (centres unmarked) [Compound 1, O,O-Dibenzyl 4-NC] | 7.97 ± 2.72 ^b % | 4.35 ± 0.71 ^c % | > 1 mM | not active | > 101 µM | activity against tumor cells [12]: inactive
O=c1c(O)c(-c2ccc(O)c(O)c2)oc2cc(O)cc(O)c12 [Quercetin, quercetin, reference compound] | 99.7 ± 0.02 ^a % | 91.4 ± 0.12 ^a % | – | – | – | loss of antioxidant activity after storage ([4]; 3T3L1 cells): ≥ 70%
C=CC(C)(CC/C=C(\C)CCC=C(C)C)c1ccc(O)c(OC)c1 (centres unmarked) [Compound 5, 2O-monomethyl 4-NC derivative] | – | – | 1.2 mM | weak cytotoxic activity | – | IC50 [15]: 43.9 to 63.1 µM
C=CC(C)(CC/C=C(\C)CCC=C(C)C)c1ccc(OC)c(O)c1 (centres unmarked) [Compound 4, 1O-monomethyl derivative of 4-NC] | – | – | 0.6 mM | weak cytotoxic activity | – | IC50 [16]: 57.4 µM
COc1ccc(O)c(C(C)(C)C)c1 [BHA, butylated hydroxyanisole, reference compound] | 94.71 ± 0.47 ^a % | – | – | – | – | DPPH• (%) percentage of inhibition ([2]; 250 µM): 98% and 97.97 ± 0.10 ^a %; loss of antioxidant activity after storage ([4]; 3T3L1 cells): ≥ 70%
C=CC(C)(CCC1OC1(C)CCC1OC1(C)C)c1ccc(OC(C)=O)c(OC(C)=O)c1 (centres unmarked) [Compound 8] | 0.31 ± 0.01 ^c % | 7.39 ± 3.66 ^c % | – | – | > 116 µM | inhibition of the oxidation of DCFH-DA in 3T3L1 cells [4]: ≥ 20%
C=CC(C)(CC/C=C(\C)CCC=C(C)C)c1ccc(OC(=O)c2ccccc2)c(OC(=O)c2ccccc2)c1 (centres unmarked) [Compound 6, O,O-dibenzoyl 4-NC] | 8.83 ± 0.23 ^b % | 3.46 ± 0.63 ^c % | – | moderately toxic | > 95.8 µM | LC50 [13]: 0.069 mM; inhibition of the oxidation of DCFH-DA in 3T3L1 cells [4]: ≥ 20%; activity against tumor cells [12]: inactive
C=CC(C)(CC/C=C(\C)CCC=C(C)C)c1ccc(O)c(OCc2ccccc2)c1 (centres unmarked) [Compound 3, 2O-monobenzyl derivative of 4-NC] | 93.31 ± 0.30 ^a % | 48.09 ± 1.33 ^b % | > 1.2 mM | weak cytotoxic activity | > 124 µM | IC50 ([12]; read-out: cytotoxicity IC50 against four tumor cell lines, four tumor cell lines): 25.1 to 41.7 µM
Cc1cc(C(C)(C)C)c(O)c(C(C)(C)C)c1 [BHT, butylated hydroxytoluene, reference compound] | 93.13 ± 0.18 ^a % | – | – | – | – | DPPH• (%) percentage of inhibition ([2]; 250 µM): 17% and 16.84 ± 0.81 ^c %; increase of antioxidant activity after storage ([4]; DMSO solution, 30 days of storage in the freezer, 3T3L1 cells): approximately 100%
